Laboratory results: US7390806B2, “Antibiotics containing borinic acid complexes and methods of use” (Anacor Pharmaceuticals, Inc., priority 2002, dated 2008)
In brackets after ≈: the same amount, converted by molar mass.

Key:
M. tuberculosis P2SP1 = experiment: Anti-mycobacterium in vitro activity, P2SP1; format: cell-based, Mycobacterium tuberculosis; details: Multi-drug resistant strain; for MIC: Mycobacterium tuberculosis, P2SP1
M. tuberculosis P1SP2 = experiment: Anti-mycobacterium in vitro activity, P1SP2; format: cell-based, Mycobacterium tuberculosis; details: Multi-drug resistant strain; for MIC: Mycobacterium tuberculosis, P1SP2

SMILES	M. tuberculosis MIC P2SP1 (M. tuberculosis P2SP1)	M. tuberculosis MIC P1SP2 (M. tuberculosis P1SP2)	MIC (M. tuberculosis P2SP1)	MIC (M. tuberculosis P1SP2)
Oc1cccc2cccnc12 [Compound 75, 8-hydroxyquinoline]	0.775 µg/mL	0.775 µg/mL		
Oc1cccc2cccnc12 [Compound 65, 8-hydroxyquinoline]	0.775 µg/mL	0.775 µg/mL		
NNC(=O)c1ccncc1 [Isoniazid (INH), Isoniazid]			> 8 µg/mL	> 8 µg/mL
Nc1ccc(C(=O)O)c(O)c1 [p-aminosalicylate]	32 µg/mL	16 µg/mL		
CO[C@H]1/C=C/O[C@@]2(C)Oc3c(C)c(O)c4c(O)c(c(/C=N/N5CCN(C)CC5)c(O)c4c3C2=O)NC(=O)/C(C)=C\C=C\[C@H](C)[C@H](O)[C@@H](C)[C@@H](O)[C@@H](C)[C@H](OC(C)=O)[C@@H]1C [Rifampicin]			16 µg/mL (≈ 19.4 µM)	> 16 µg/mL
CCc1cc(C(N)=S)ccn1 [Ethionamide]			> 64 µg/mL	32 µg/mL (≈ 192 µM)
Oc1cccc2cccnc12 [Compound 10, 8-hydroxyquinoline]	0.387 µg/mL	0.387 µg/mL		
[H]/N=C(/N)N[C@H]1[C@H](O)[C@@H](O)[C@H](O[C@@H]2O[C@@H](C)[C@](O)(C=O)[C@H]2O[C@@H]2O[C@@H](CO)[C@H](O)[C@@H](O)[C@@H]2NC)[C@@H](N/C(N)=N\[H])[C@@H]1O [Streptomycin]			< 2 µg/mL	< 2 µg/mL
Oc1cccc2cccnc12 [Compound 72, 8-hydroxyquinoline]	0.775 µg/mL	0.775 µg/mL		
Oc1cccc2cccnc12 [Compound 51, 8-hydroxyquinoline]	0.387 µg/mL	0.387 µg/mL		
N[C@@H]1CON=C1O [cycloserine]			8 µg/mL (≈ 78.4 µM)	8 µg/mL (≈ 78.4 µM)
Oc1cccc2cccnc12 [Compound 50, 8-hydroxyquinoline]	0.387 µg/mL	0.387 µg/mL		
CC1COc2c(N3CCN(C)CC3)c(F)cc3c(=O)c(C(=O)O)cn1c23 (stereo not shown) [Ofloxacin]			32 µg/mL (≈ 88.6 µM)	16 µg/mL (≈ 44.3 µM)
Oc1cccc2cccnc12 [Compound 53, 8-hydroxyquinoline]	0.775 µg/mL	0.387 µg/mL		
NC[C@H]1O[C@H](O[C@H]2[C@H](O)[C@@H](O[C@H]3O[C@H](CO)[C@@H](O)[C@H](N)[C@H]3O)[C@H](N)C[C@@H]2N)[C@H](O)[C@@H](O)[C@@H]1O [Kanamycin]			< 2 µg/mL	< 2 µg/mL
CC[C@@H](CO)NCCN[C@@H](CC)CO [Ethambutol]			8 µg/mL (≈ 39.2 µM)	8 µg/mL (≈ 39.2 µM)
Oc1cccc2cccnc12 [Compound 55, 8-hydroxyquinoline]	0.775 µg/mL	0.387 µg/mL		
